Experimental findings from patent US11401278B2, “Macrocyclic indole derivatives” (The Broad Institute, Inc., priority 2017, dated 2022) are described below.

As a reminder, the IC50 is the concentration that gives 50% inhibition. As usually defined, the pIC50 is −log10 of the IC50, conventionally taken in molar units. A high value points to a low IC50.

Data set [1] relates to DM-S114. The experiment in a line: Antiproliferation assay (Assay 7), DM-S114. The conditions noted are these: Homo sapiens, DMS-114, CellTiter-Glo, 72 hours, median, read-out: Antiproli DM-S114 [M] median IC50. Format: cell-based. As for the experimental part:
(§1) Assessment of the Anti-Proliferative Effect of Compounds in Different Cell Lines
(§2) The impact of compounds on the proliferation of different cell lines was assessed using the CellTiter-Glo® Luminescent Cell Viability reagent from Promega (G7573).
(§3) In parallel, cells were plated in a reference (day 0) plate for time zero determination.
(§4) Rim wells were excluded. The cells were incubated for 72 hours in a humidified incubator at 37° C. The day 0 plate was measured by adding 30 μL/well of CTG solution (CellTiter-Glo® Luminescent Cell Viability reagent, Promega G7573) to time zero wells in the reference plate followed by a 10 minutes incubation and luminescence reading at 0.1 ms. using the PHERAstar FS microplate reader (BMG Labtech).
(§5) After 72 hours incubation, the treated plates were measured in the same way as the day 0 plate mentioned above.

Data set [2] deals with A-431. The experiment in a line: Antiproliferation assay (Assay 7), A-431. Format: cell-based. Conditions: Homo sapiens, CellTiter-Glo, 72 hours, median, read-out: Antiproli A-431 [M] median IC50. The procedure: as §1, §2, §3, §4, §5
For orientation: In ATP-based viability assays light output follows the ATP content of the culture.

In data set [3] the test system is SK-MEL-2. As to the kind of experiment: Antiproliferation assay (Assay 7), SK-MEL-2. The format is cell-based. Conditions: Homo sapiens, CellTiter-Glo, 72 hours, median, read-out: Antiproli SK-MEL-2 [M] median IC50. The procedure:
as §1, §2, §3, §4, §5

The test system of data set [4] is PA-1. As to the kind of experiment: Antiproliferation assay (Assay 7), PA-1. The format is cell-based. The conditions noted are these: Homo sapiens, CellTiter-Glo, 72 hours, median, read-out: Antiproli PA-1 [M] median IC50. As for the experimental part:
as §1, §2, §3, §4, §5

Data set [5] concerns SNU-16. The experiment in a line: Antiproliferation assay (Assay 7), SNU-16. The format is cell-based. The conditions noted are these: Homo sapiens, CellTiter-Glo, 72 hours, median, read-out: Antiproli SNU-16 [M] median IC50. The procedure: as §1, §2, §3, §4, §5
In data set [6] the test system is SUDHL5.
Data set [7] deals with SUDHL10.
Experimental: Assay 6 Induction of Cytotoxicity Upon Treatment of Cells with Selected Compounds
Therefore, cytotoxicity assays were run in parallel in SUDHL5 and SUDHL10 cells.
The different cell lines were plated in culture medium (RPMI 1640 [GIBCO #22400-089] supplemented with 10% Fetal Bovine Serum) at a density of 3,300 cells in 30 μl/well in a sterile, solid black, flat bottom, polystyrene, TC-treated 384-well microplate (Corning #3571) using Multidrop Combi Reagent Dispenser. As a control, medium without cells was also added to the plate. Cells were incubated in a humidified incubator at 37° C. overnight. On the next day, the cells were treated with compounds (stock solution, 10 mM in DMSO) using the HP D300 Digital Dispenser in a concentration range of 3.3×10e-5 M (33 μM) to 5×10e-9 M (5 nM) in a single-dot curve with at least 16 dilutions and a DMSO concentration of 0.33%. Rim wells were excluded. The cells were incubated for 5 hours in a humidified incubator at 37° C. After this incubation, 30 μl of CellTiter-Glo® Luminescent Cell Viability reagent (Promega, G7573) was added to each well using the Multidrop Combi Reagent Dispenser, followed by 15 minutes incubation on a shaker at room temperature. Finally, luminescence was read at 0.1 ms, with a gain of 3000 using the PHERAstar FS microplate reader (BMG Labtech).
The subject of data set [8] is SUDHL10. The experiment in a line: Antiproliferation assay (Assay 7), SUDHL10. Format: cell-based. The conditions noted are these: CellTiter-Glo, median, read-out: Antiproli SUDHL10 [M] (median) IC50. The procedure: as §1, §2, §3, §4, §5
The conditions of data set [9]: from CCOC(=O)c1[nH]c2c(-c3c(CN(CCCN4CCOCC4)S(=O)(=O)CCCCl)nn(C)c3CC)cccc2c1CCCOc1cccc2ccccc12; amine bond; NaH; DMF; 25.0 mM; 60.0 °C; 6.0 h; 2 steps.

Structures are written as SMILES. pIC50: −log10 of the molar value. Where a name gives a salt, the structure may show the parent alone. Read-outs that look alike come from different tables or passages of the source.

Regarding `CCc1c2c(nn1C)CN(CC)S(=O)(=O)CCCn1c(C(=O)O)c(CCCOc3cccc4cc(F)ccc34)c3ccc(Cl)c-2c31` (racemic) [Example 56, (rac)-4-chloro-3,14-diethyl-7-{3-[(6-fluoro-1-naphthyl)oxy]propyl}-2-methyl-11,12,14,15-tetrahydro-2H,10H-pyrazolo[3′,4′:4,5][1,2,8]thiadiazacycloundecino[6,7,8-hi]indole-8-carboxylic acid 13,13-dioxide], the IC50 in data set [1] was 5.61e-07 M; in data set [2], 1.18e-06 M; in [3], 1.14e-06 M; in data set [4], 7.07e-07 M; in [5], 1.05e-06 M.

On to `CCc1c2c(nn1C)C(CCN1CCOCC1)N(C)S(=O)(=O)CCCn1c(C(=O)O)c(CCCOc3cccc4cc(F)ccc34)c3ccc(Cl)c-2c31` (racemic) [Example 73, (rac)-(4-chloro-3-ethyl-7-{3-[(6-fluoronaphthalen-1-yl)oxy]propyl}-2,14-dimethyl-15-[2-(morpholin-4-yl)ethyl]-13,13-dioxo-10,11,12,13,14,15-hexahydro-2H-13lambda^6-pyrazolo[3′,4′:4,5][1,2,8]thiadiazacycloundecino[6,7,8-hi]indole-8-carboxylic acid (Racemate 1)], for which the results for the pIC50 in data set [6] and in data set [7] were 7.70 and 7.72, respectively.

For the molecule `CCc1c2c(nn1C)C(CCC1CCOCC1)N(C)S(=O)(=O)CCCn1c(C(=O)O)c(CCCOc3cccc4cc(F)ccc34)c3ccc(Cl)c-2c31` (racemic) [Example 60, (rac)-4-chloro-3-ethyl-7-{3-[(6-fluoro-1-naphthyl)oxy]propyl}-2,14-dimethyl-15-[2-(tetrahydro-2H-pyran-4-yl)ethyl]-11,12,14,15-tetrahydro-2H,10H-pyrazolo[3′,4′:4,5][1,2,8]thiadiazacycloundecino[6,7,8-hi]indole-8-carboxylic acid 13,13-dioxide (Racemate 1)], the IC50 is 2.07e-06 M in data set [2], 5.08e-06 M in [3], 1.84e-06 M in data set [4] and 2.54e-06 M in [5].

Turning to `Cc1c2c(nn1C)CN(C)S(=O)(=O)CCCn1c(C(=O)O)c(CCCOc3cccc4ccccc34)c3ccc(Cl)c-2c31` (racemic) [Example 4, (rac)-4-Chloro-2,3,14-trimethyl-7-{3-[(naphthalen-1-yl)oxy]propyl}-13,13-dioxo-10,11,12,13,14,15-hexahydro-2H-13λ^6-pyrazolo[3′,4′:4,5][1,2,8]thiadiazacycloundecino-[6,7,8-hi]indole-8-carboxylic acid], the IC50 in data set [8] (Homo sapiens, SU-DHL10, 72 h) is 5.6e-07 M.

In the case of `Cc1c2c(nn1C)CN(C)S(=O)(=O)CCCn1c(C(=O)O)c(CCCOc3cccc4ccccc34)c3ccc(Cl)c-2c31` (single isomer, unassigned; enantiomer 1) [Example 5, 4-Chloro-2,3,14-trimethyl-7-{3-[(naphthalen-1-yl)oxy]propyl}-13,13-dioxo-10,11,12,13,14,15-hexahydro-2H-13λ^6-pyrazolo[3′,4′:4,5][1,2,8]thiadiazacycloundecino[6,7,8-hi]indole-8-carboxylic acid-N-ethylethanamine salt (Enantiomer 1)], the IC50 in data set [8] (72 hours) came to 4.4e-07 M.

With `CCc1c2c(nn1C)CN(CCCN1CCOCC1)S(=O)(=O)CCCn1c(C(=O)O)c(CCCOc3cccc4ccccc34)c3cccc-2c31` (racemic) [Example 15, (rac)-12-Ethyl-11-methyl-8-(3-morpholinopropyl)-1-(3-(naphthalen-1-yloxy)propyl)-4,5,6,8,9,11-hexahydropyrazolo[3′,4′:4,5][1,2,8]thiadiazacycloundecino[6,7,8-hi]indole-2-carboxylic acid 7,7-dioxide 2,2,2-trifluoroacetic acid salt], the ring closure, yield of all isomers in data set [9] was 48.2%.
